The record followed here is US20260297060A1, “COMPOUNDS FOR THE DEGRADATION OF MUTANT BRAF” (C4 THERAPEUTICS, INC., priority 2023, published 2026).

Molecules are shown by their SMILES. Where two headings read alike, the source gives them in different places.

Series [1] has as its system A375 tumors. In words: In vivo efficacy, A375 xenograft tumor volume (Example 7). Set-up: species or system human A375 melanoma xenograft in female BALB/c nude mice. The following applies: oral, FIG. 14; for tumor regressions in the xenograft model: 10 mg/kg BID, A375 xenografts; for antitumor response compared with comparators dabrafenib or encorafenib: A375 human melanoma xenografts. The method, then: FIG. 14 is a line graph showing in vivo efficacy of dabrafenib, Compound 141, Compound 118, Compound 156, and Compound 180 in the treatment of female BALB/c nude mice bearing A375 tumors. Mice were treated with vehicle (10 μL/g, p.o., BID), dabrafenib (100 mg/kg, p.o., QD), Compound 141 (10 mg/kg, p.o., QD), Compound 141 (10 mg/kg, p.o., BID), Compound 118 (10 mg/kg, p.o., BID), Compound 156 (10 mg/kg, p.o., BID), or Compound 180 (10 mg/kg, p.o., BID) by oral gavage (p.o.). Data points represent group mean change in tumor volume. Error bars represent standard error of the mean (SEM). The x-axis is the time measured in days and the y-axis is A375 tumor volume measured in mm^3. The experiment was conducted as described in Example 7.
For orientation: Xenograft models place foreign cells or tissue in a host animal.

Series [2] can be described thus: Example 7 pharmacokinetics assay for efficacy study (plasma, liver). The following applies: mouse, po, 10 mg/kg, p.o. The format is in vivo, BALB/c nude mice. The method, then:
For efficacy study, agents were tested in the A375 human melanoma xenografts. Compound 118, Compound 156, and Compound 180 were administered to BALB/c nude mice bearing A375 xenografts from day 0 and dosed p.o. twice per day (BID). Compound 141 was administered from day 0 and dosed p.o. twice per day (BID) or dosed p.o. daily (QD) from day 1. Compound 141, Compound 118, Compound 156, and Compound 180 were dosed at 10 mg/kg for 14 days. The known BRAF inhibitor Dabrafenib was used as a positive control. Dabrafenib was administered from day 1 and dosed p.o. daily (QD) for 14 days and dosed at 100 mg/kg.
The plasma samples were collected at predetermined time points for PK analysis. The mice were euthanized at predetermined time points post the treatment. The blood samples were collected into the 1.5 mL Eppendorf tubes containing 15 μL of 0.5 M EDTA-K2. And then the anticoagulant blood samples were centrifuged at 2,500 g at 4° C. for 15 minutes. The plasma samples were separated into 2 aliquots. The 1st was used for PK analysis, and the 2nd served as backup. The samples were stored at −80° C. before bioanalysis.
Liver samples were collected at predetermined time points for PK analysis. The left lobe of the liver was dissected out and split into 2 parts. The 1st part was used for PK analysis and the 2nd part served as the backup for the study. The samples were transferred into pre-labeled tubes and quickly froze in liquid nitrogen within 2 minutes after dissection. The samples were stored at −80° C. before bioanalysis.
The harvested plasma and liver samples were processed for pharmacokinetics analysis by LC-MS/MS with a concentration range of 0.500~500 ng/mL for Dabrafenib in plasma and liver homogenate, 20.0~20,000 ng/mL for Compound 141, Compound 180 and Compound 118 in plasma and liver, 10.0~10,000 ng/mL for Compound 156 in plasma and liver.

The mark [3] stands for this setting: liver, BID × 14 days, read-out: Concentration in Liver (mean ± SEM).
Setting [4] is: plasma, BID × 14 days, read-out: Concentration in Plasma (mean ± SEM).

Take `CCN(C)S(=O)(=O)Nc1ccc(F)c(Oc2ccc3ncn(C4CC5(CCN(C6CC7(C6)CN(c6cc8c(cc6F)c(N6CCC(=O)NC6=O)nn8C)C7)CC5)C4)c(=O)c3c2)c1C#N` (stereo not shown) [Compound 141, 6-[2-cyano-3-[[ethyl(methyl)sulfamoyl]amino]-6-fluoro-phenoxy]-3-[7-[2-[3-(2,4-dioxohexahydropyrimidin-1-yl)-5-fluoro-1-methyl-indazol-6-yl]-2-azaspiro[3.3]heptan-6-yl]-7-azaspiro[3.5]nonan-2-yl]-4-oxo-quinazoline]: the “tumor regressions in the xenograft model” value in series [1] is listed as “profound tumor regressions”. The “antitumor response compared with comparators dabrafenib or encorafenib” value in series [1] is reported as “more robust antitumor response”. Also, the concentration at 6 h in series [2] (setting [3]) was 6570 ± 341 ng/g; in series [2] (liver, QD × 14 days, read-out: Concentration in Liver (mean ± SEM)), 7500 ± 286 ng/g; in series [2] (setting [4]), 8750 ± 907 ng/mL; in series [2] (plasma, QD × 14 days, read-out: Concentration in Plasma (mean ± SEM)), 11000 ± 474 ng/mL.

In the case of `CCN(C)S(=O)(=O)Nc1ccc(F)c(Oc2ccc3ncc(C4CC5(CCN(C6CCC(c7cc8c(cc7F)c(N7CCC(=O)NC7=O)nn8C)CC6)CC5)C4)nc3c2)c1C#N` (single isomer, unassigned) [Compound 180, 7-[2-cyano-3-[[ethyl(methyl)sulfamoyl]amino]-6-fluoro-phenoxy]-2-[7-[4-[3-(2,4-dioxohexahydropyrimidin-1-yl)-5-fluoro-1-methyl-indazol-6-yl]cyclohexyl]-7-azaspiro[3.5]nonan-2-yl]quinoxaline], the “tumor regressions in the xenograft model” value in series [1] was “profound tumor regressions”. The “antitumor response compared with comparators dabrafenib or encorafenib” value in series [1] is on record as “more robust antitumor response”. Further, the concentration at 6 h in series [2] (setting [3]) is 2400 ± 425 ng/g; in series [2] (setting [4]), 1920 ± 363 ng/mL.
